pIC50: −log10 of the molar value. Counter-ions that a name gives are not always drawn.

For data set [1] the following is noted: cited from earlier work.
In another data set the target is T1, CETP (Homo sapiens, UniProt P11597).
T1 construct: made in house
T1 sequence (P11597 18-493): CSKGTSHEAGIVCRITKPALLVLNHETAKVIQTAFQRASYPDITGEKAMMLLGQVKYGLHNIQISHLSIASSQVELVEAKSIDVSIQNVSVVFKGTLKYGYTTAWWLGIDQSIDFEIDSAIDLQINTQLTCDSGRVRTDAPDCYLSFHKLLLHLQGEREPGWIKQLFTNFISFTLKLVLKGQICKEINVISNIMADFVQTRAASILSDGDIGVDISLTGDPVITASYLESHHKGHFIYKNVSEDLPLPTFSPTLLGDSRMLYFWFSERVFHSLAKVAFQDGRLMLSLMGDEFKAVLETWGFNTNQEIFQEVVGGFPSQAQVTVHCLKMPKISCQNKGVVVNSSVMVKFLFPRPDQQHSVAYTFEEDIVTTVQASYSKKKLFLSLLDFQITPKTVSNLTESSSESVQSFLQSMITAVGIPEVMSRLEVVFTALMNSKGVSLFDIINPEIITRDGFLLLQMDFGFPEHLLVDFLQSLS
In words: Scintillation Proximity Assay (SPA) for CETP Activity. The class given is biochemical. As to the method: Protocol: Scintillation Proximity Assay (SPA) for CETP Activity
First low density lipoprotein (LDL) (Meridian) was biotinylated by incubating LDL with biotin for 1 hour on ice, after which it was dialyzed to remove free biotin. Then compounds at varying concentrations were incubated with 15 nM CETP (reagent production group, In Vitro Pharmacology, MRL Rahway) and 50 ug/ml of the biotinylated LDL in 50 mM HEPES, 150 mM NaCl, pH 7.4, for 1 hour at 37° C. The reaction was started by adding ^3H-cholesterol ester high density lipoprotein (HDL) (American Radiochemicals Corp) at a concentration of ˜0.6 nM. The reaction proceeded for 2 hours at 37° C., after which time it was quenched by the addition of 12% acetic acid. PVT streptavadin-coated scintillation proximity beads, which had been brought to room temperature, were then added at a concentration of 4 mg/ml. The assay was then mixed and counted after one half hour in a Microbeta plate reader.
Background: In a scintillation proximity assay essentially only radioactivity close to the scintillant gives light.

Data set [2] deals with T2, endogenous CETP from serum (Homo sapiens, UniProt P11597).
T2 construct: For the transfer assay using endogenous CETP from serum (95% RTA); from tissue; host or cells: human serum
T2 sequence (P11597 18-493): T1 sequence (P11597 18-493)
In words: RTA assay using endogenous CETP from serum (95% RTA). The class given is biochemical. Particulars: RTA assay in 95% human serum, labeled with an asterisk. On the procedure: In Vitro Radioactive Assays of CETP-Catalyzed CE and TG Transfer (RTA Assay)
Reagents and sources are: [3H] cholesteryl oleate (GE #TRK.886), [3H] Triolein (Perkin-Elmer NET-431), Butylated hydroxyl toluene (Aldrich, #D4740-4), DOPC (Sigma, #P6354), Sodium Bromide (Fisher scientific #5255-500), PEG 8000 (Fisher, #BP233-1), and human HDL (Intracel Corp #RP-036).
An in vitro assay for determining IC50's to identify compounds that inhibit CETP transfer activity is performed based on a modification of a published method (Morton and Zilversmit, (1981) A plasma inhibitor of triglyceride and cholesteryl ester transfer activities, J. Biol. Chem. 256(23), 11992-11995). The ability of inhibitors to alter CETP activity is performed using two different assays: one using recombinant CETP and one using an edogenous plasma source of CETP. Both assays measure the transfer of [3H] cholesteryl oleate or [3H]triolein from exogenous LDL to HDL.
Radiolabeled donor particles are generated by first combining 100 μl of 200 μM butylated hydroxyl toluene in CHCl3, 216 μL of 21.57 mM DOPC in EtOH, and either 500 μCi [3H]-triolein (Perkin Elmer #NET-431) or 500 μCi [3H]-cholesteryl oleate (GE #TRK886) in a glass tube. Reagents are mixed, dried under nitrogen, and then resuspended in 2 mL of 50 mM Tris, 27 μM EDTA at pH 7.4. After a brief vortex, the solution is sonicated until clear and mixed with 20 mL of fresh human serum. The mixture is incubated overnight at 37° C. The [3H] labeled LDL substrate is separated at 1.063 g/ml density by sequential ultracentrifugal flotation in NaBr according to the method by (Havel, Eder et al. 1955; Chapman, Goldstein et al. 1981). Once isolated the particles are dialyzed 3× in CETP buffer (50 mM Tris, pH 7.4, 100 mM NaCl, 1 mM EDTA). Human HDL is purchased from Intracel and used as the acceptor particles.
Transfer assays are performed in a 96-well v-bottom polypropylene plate. […] After mixing, plates are counted by liquid scintillation. […]

For data set [3] the following is noted: torcetrapib and atorvastatin concomitantly compared with atorvastatin alone; cited from earlier work.
In the next data set the target is T3, recombinant CETP (rCETP) (Homo sapiens, UniProt P11597).
T3 sequence (P11597 18-493): T1 sequence (P11597 18-493)
As to the kind of experiment: RTA assay using recombinant CETP (2% RTA). The class given is biochemical. Particulars: RTA assay in 2% human serum; read-out: IC50. In outline:
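Compounds preincubated 1 h at 37 °C with assay cocktail (CETP buffer: 50 mM Tris pH 7.4, 100 mM NaCl, 1 mM EDTA; human HDL acceptor); transfer started with [3H]cholesteryl oleate- or [3H]triolein-labelled LDL, 60 min at 37 °C. LDL PEG-precipitated; supernatant counted by scintillation, blank-corrected; IC50 from 4-parameter sigmoidal fit of % inhibition vs DMSO control.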

Setting [4] is: patients, with baseline statin therapy, compared with just a statin.

In the case of `COc1cc(F)c(C(C)C)cc1-c1ccc(C(F)(F)F)cc1CN1C(=O)O[C@H](c2cc(C(F)(F)F)cc(C(F)(F)F)c2)[C@@H]1C` [anacetrapib], the increase in mortality result in data set [1] (patients treated with anacetrapib) is on record as “unlikely”. In addition, in data set [1] (setting [4]), the “decrease of LDL-C” value is recorded as 40% and the “increase of HDL-C” value is given as 138%. On to `COc1cc(F)c(C(C)C)cc1-c1ccc(-n2cccn2)nc1CN1C(=O)O[C@H](c2cc(C(F)(F)F)cc(C(F)(F)F)c2)[C@@H]1C` [Example 299, (4S,5R)-5-[3,5-bis(trifluoromethyl)phenyl]-3-({3-[4-fluoro-2-methoxy-5-(propan-2-yl)phenyl]-6-(1H-pyrazol-1-yl)pyridin-2-yl}methyl)-4-methyl-1,3-oxazolidin-2-one], for which the negative logarithm of the IC50 (pIC50) – broadly, the IC50 on a negative log10 scale, so that one unit is a factor of ten – on CETP was 7.25.

In the case of `COC(=O)c1ccc(-c2cc(-c3cnc(N4CCC4)nc3CN3C(=O)O[C@H](c4cc(C(F)(F)F)cc(C(F)(F)F)c4)[C@@H]3C)c(F)cc2F)c(C)c1` [Example 142], the pIC50 in data set [2] is 6.84. Regarding `CCOC(=O)N1c2ccc(C(F)(F)F)cc2[C@@H](N(Cc2cc(C(F)(F)F)cc(C(F)(F)F)c2)C(=O)OC)C[C@H]1CC` [torcetrapib, Torcetrapib], the incidence of mortality result in data set [3] is “higher incidence of mortality”.

Consider `COc1ccc(CC(C)(C)C(=O)OC(C)(C)C)cc1-c1cnc(N2CCC2)nc1CN1C(=O)O[C@H](c2cc(C(F)(F)F)cc(C(F)(F)F)c2)[C@@H]1C` [Example 127], for which, on recombinant CETP (rCETP), the negative logarithm of the IC50 (pIC50) was 6.94. For `CCOC(=O)[C@@H]1CC1c1ccc(OC)c(-c2cnc(N3CC(F)(F)C3)nc2CN2C(=O)O[C@H](c3cc(C(F)(F)F)cc(C(F)(F)F)c3)[C@@H]2C)c1` (some centres unmarked) [Example 129], the pIC50 on recombinant CETP (rCETP) was 7.74. For the compound `COc1ccc([C@@H]2C[C@H]2C(N)=O)cc1-c1ccc(N2CCC2)nc1CN1C(=O)O[C@H](c2cc(C)cc(C)c2)[C@@H]1C` [Example 250], the pIC50 at recombinant CETP (rCETP) is 7.27. Take `COc1ccc(Cc2nc[nH]n2)cc1-c1ccc(N2CCC2)nc1CN1C(=O)O[C@H](c2cc(C(F)(F)F)cc(C(F)(F)F)c2)[C@@H]1C` [Example 265]: the pIC50 on recombinant CETP (rCETP) is 7.64.

Take `COc1ccc(-c2ccc(O)c(C(C)=O)c2)cc1-c1ccc(N2CCC2)nc1CN1C(=O)O[C@H](c2cc(C(F)(F)F)cc(C(F)(F)F)c2)[C@@H]1C` [Example 257, (4S,5R)-3-{[3-(3′-acetyl-4′-hydroxy-4-methoxybiphenyl-3-yl)-6-azetidin-1-ylpyridin-2-yl]methyl}-5-[3,5-bis(trifluoromethyl)phenyl]-4-methyl-1,3-oxazolidin-2-one]: at recombinant CETP (rCETP), the pIC50 was 7.05.

Take `COC(=O)c1coc(-c2ccc(OC)c(-c3ccc(N4CCC4)nc3CN3C(=O)O[C@H](c4cc(C(F)(F)F)cc(C(F)(F)F)c4)[C@@H]3C)c2)c1` [Example 53]: the pIC50 on recombinant CETP (rCETP) was 7.21. The same measure, in the same setting: in the case of `COc1ccc([C@H]2CC[C@H](C(=O)O)CC2)cc1-c1ccc(N2CCC2)nc1CN1C(=O)O[C@H](c2cc(F)cc(F)c2)[C@@H]1C` [Example 85] it was 7.08.

On to `CCOC(=O)C[C@@H]1CCc2cc(OC)c(-c3cnc(N4CCC4)nc3CN3C(=O)O[C@H](c4cc(C(F)(F)F)cc(C(F)(F)F)c4)[C@@H]3C)cc21` [Example 126], for which the pIC50 on recombinant CETP (rCETP) is 6.87.

Take `COc1ccc(CCC(=O)O)cc1-c1cnc(N2CCC2)nc1CN1C(=O)O[C@H](c2cccc(F)c2)[C@@H]1C` [Example 277]: the pIC50 in data set [2] is 7.46. With `COc1ccc(-c2ccc(C(=O)O)cc2C)cc1-c1cnc(N2CC(F)(F)C2)nc1CN1C(=O)O[C@H](c2cc(C(F)(F)F)cc(C(F)(F)F)c2)[C@@H]1C` [Example 160], on recombinant CETP (rCETP), the pIC50 is 8.05. On the same count and under the same terms, in the case of `COc1ccc(CCc2n(C)cc[n+]2C)cc1-c1ccc(N2CCC2)nc1CN1C(=O)O[C@H](c2cc(C(F)(F)F)cc(C(F)(F)F)c2)[C@@H]1C` [Example 269, 2-(2-{3-[6-azetidin-1-yl-2-({(4S,5R)-5-[3,5-bis(trifluoromethyl)phenyl]-4-methyl-2-oxo-1,3-oxazolidin-3-yl}methyl)pyridin-3-yl]-4-methoxyphenyl}ethyl)-1,3-dimethyl-1H-imidazol-3-ium formate] it was 6.76; in that of `COC(=O)CCc1ccc(OC)c(-c2cnc(N3CC(OC)C3)nc2CN2C(=O)O[C@H](c3cc(C(F)(F)F)cc(C(F)(F)F)c3)[C@@H]2C)c1` [Example 140, Methyl 3-{3-[4-({(4S,5R)-5-[3,5-bis(trifluoromethyl)phenyl]-4-methyl-2-oxo-1,3-oxazolidin-3-yl}methyl)-2-(3-methoxyazetidin-1-yl)pyrimidin-5-yl]-4-methoxyphenyl}propanoate], 6.46; in that of `CCOC(=O)c1c(C)c(-c2ccc(OC)c(-c3ccc(N4CCC4)nc3CN3C(=O)O[C@H](c4cc(C(F)(F)F)cc(C(F)(F)F)c4)[C@@H]3C)c2)c(C)n1C` [Example 57], 8.15. Consider `Cc1cc(C(=O)O)ccc1-c1cc(-c2cnc(N3CCC3)nc2CN2C(=O)O[C@H](c3cc(C(F)(F)F)cc(C(F)(F)F)c3)[C@@H]2C)c(F)cc1F` [Example 170], for which the pIC50 in data set [2] is 6.96.

These data come from patent US9221834B2 (Merck Sharp & Dohme Corp., priority 2010, dated 2015).
